The values below come from ChEMBL document CHEMBL1201862, “PubChem BioAssay data set” (2004).

Active and inactive are the calls of the source.

Among the targets are Cytochrome P450 2C9 (Homo sapiens, UniProt P11712); Cytochrome P450 3A4 (Homo sapiens, UniProt P08684); Cytochrome P450 2D6 (Homo sapiens, UniProt P10635).
In data set [1] the target is Voltage-gated inwardly rectifying potassium channel KCNH2 (Homo sapiens, UniProt Q12809). Particulars: Potency.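 Note: confirmatory quantitative high-throughput screen measuring inhibition of hERG channel activity.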
Chain of Voltage-gated inwardly rectifying potassium channel KCNH2 (Q12809 whole entry): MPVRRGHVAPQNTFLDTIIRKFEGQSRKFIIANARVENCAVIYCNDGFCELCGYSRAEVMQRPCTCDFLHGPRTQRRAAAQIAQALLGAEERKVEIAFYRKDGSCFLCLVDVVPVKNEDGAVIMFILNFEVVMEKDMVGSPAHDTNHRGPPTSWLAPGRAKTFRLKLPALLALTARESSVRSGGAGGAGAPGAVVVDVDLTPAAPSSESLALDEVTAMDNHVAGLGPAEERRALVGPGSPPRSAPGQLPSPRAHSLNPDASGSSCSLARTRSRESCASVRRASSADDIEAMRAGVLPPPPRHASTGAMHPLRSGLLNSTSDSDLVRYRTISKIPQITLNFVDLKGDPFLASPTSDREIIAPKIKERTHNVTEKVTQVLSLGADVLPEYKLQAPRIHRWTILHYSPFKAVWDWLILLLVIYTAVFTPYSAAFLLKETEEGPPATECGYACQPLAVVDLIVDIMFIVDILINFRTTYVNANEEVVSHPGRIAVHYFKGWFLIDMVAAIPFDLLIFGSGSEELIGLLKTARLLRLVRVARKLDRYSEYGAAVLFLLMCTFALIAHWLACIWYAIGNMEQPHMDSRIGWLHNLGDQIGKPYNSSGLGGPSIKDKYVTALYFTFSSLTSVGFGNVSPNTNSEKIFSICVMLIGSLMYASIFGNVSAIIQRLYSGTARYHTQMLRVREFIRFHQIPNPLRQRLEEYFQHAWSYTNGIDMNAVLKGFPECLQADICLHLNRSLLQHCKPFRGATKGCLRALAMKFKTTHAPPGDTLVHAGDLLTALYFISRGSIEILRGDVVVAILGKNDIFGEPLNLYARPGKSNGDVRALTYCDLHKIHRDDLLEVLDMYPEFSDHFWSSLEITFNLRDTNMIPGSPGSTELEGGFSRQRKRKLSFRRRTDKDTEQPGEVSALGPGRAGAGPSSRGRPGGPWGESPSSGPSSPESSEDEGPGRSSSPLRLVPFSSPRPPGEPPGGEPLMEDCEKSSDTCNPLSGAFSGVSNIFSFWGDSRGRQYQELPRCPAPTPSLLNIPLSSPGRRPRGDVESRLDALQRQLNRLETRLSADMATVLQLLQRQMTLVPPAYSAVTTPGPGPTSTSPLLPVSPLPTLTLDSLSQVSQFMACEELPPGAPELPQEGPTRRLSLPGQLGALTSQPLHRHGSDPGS
Another data set relates to P388/ADR. The data set can be described thus: cells. The format is functional. Particulars: Mus musculus.
Another data set deals with P388. The data set can be described thus: cells. The data set is classed as functional. Particulars: Mus musculus.
The subject of a further data set is SN12K1. The data set can be described thus: cells. As to conditions: Homo sapiens. The format is functional.
Data set [2] is described as follows: reduction of Shn3 3'UTR-driven luciferase in osteoblasts – cell-based, Clone20 osteoblasts, firefly luciferase, cherry-picked, dose response (AID 624132).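 Note: firefly luciferase luminescence from reporter carrying the Shn3 3'UTR in osteoblasts.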 The data set is classed as functional.
The subject of the next data set is HEK293. The experiment in a line: EBV LMP1 TES2 canonical NF-kB signalling blockers – cell-based, HEK293, luciferase, cherry-pick, dose response (AID 588343). The data set is classed as functional. Particulars: Homo sapiens.
Data set [3] concerns the target Heat shock protein HSP 90-alpha (Homo sapiens, UniProt P07900). The data set is classed as functional, organism-based.
The nature of data set [4]: loss of viability in HepG2 cells – cell-based, CellTiter-Glo, cherry-picked, cytotoxicity control for Shn3 inhibitor project, dose response (AID 624134). The format is functional. For orientation: Cellular ATP, detected with luciferase, serves as a proxy for viable cell number.
The nature of data set [5]: non-specific 3'UTR reporter inhibition in Clone20-Shn3RL – cell-based, Renilla luciferase, cherry-picked, counter-screen for Shn3 inhibitor project, dose response (AID 624133). The format is functional. On the technique in general: Counterscreens check selectivity or assay interference.
A further data set deals with T1, Protein RecA (Mycobacterium tuberculosis, UniProt P9WHJ3).
T1 sequence (P9WHJ3 whole entry): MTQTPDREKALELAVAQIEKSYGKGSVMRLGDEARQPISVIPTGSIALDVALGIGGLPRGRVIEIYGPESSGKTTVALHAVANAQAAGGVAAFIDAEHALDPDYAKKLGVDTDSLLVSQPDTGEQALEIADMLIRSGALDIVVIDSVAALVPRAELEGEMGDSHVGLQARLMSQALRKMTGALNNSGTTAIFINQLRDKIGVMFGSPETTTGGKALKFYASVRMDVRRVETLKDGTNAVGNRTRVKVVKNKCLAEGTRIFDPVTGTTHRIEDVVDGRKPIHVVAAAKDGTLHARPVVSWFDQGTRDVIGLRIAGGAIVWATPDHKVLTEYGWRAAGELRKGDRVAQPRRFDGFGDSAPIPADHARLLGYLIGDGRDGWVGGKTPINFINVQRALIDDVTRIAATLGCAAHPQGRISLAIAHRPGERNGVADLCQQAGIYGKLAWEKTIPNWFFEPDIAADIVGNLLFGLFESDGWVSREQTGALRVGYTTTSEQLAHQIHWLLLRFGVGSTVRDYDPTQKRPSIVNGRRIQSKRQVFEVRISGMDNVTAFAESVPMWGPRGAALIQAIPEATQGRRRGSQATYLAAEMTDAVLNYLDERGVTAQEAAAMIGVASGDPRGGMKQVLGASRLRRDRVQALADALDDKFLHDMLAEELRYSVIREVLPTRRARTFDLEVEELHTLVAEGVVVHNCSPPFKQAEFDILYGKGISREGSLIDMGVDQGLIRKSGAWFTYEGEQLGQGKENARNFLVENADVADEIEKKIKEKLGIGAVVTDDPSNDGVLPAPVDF
The experiment in a line: Fluorescence Cell-Free Homogeneous Dose Retest to Identify Inhibitors of RecA-Intein Splicing Activity. [Related pubchem assays (depositor defined):AID2097, AID2223, AID489010, AID492950]. The data set is classed as functional.

Data set [6] has as its target T2, Replicative DNA helicase DnaB (Mycobacterium tuberculosis, UniProt P9WMR3).
T2 sequence (P9WMR3 whole entry): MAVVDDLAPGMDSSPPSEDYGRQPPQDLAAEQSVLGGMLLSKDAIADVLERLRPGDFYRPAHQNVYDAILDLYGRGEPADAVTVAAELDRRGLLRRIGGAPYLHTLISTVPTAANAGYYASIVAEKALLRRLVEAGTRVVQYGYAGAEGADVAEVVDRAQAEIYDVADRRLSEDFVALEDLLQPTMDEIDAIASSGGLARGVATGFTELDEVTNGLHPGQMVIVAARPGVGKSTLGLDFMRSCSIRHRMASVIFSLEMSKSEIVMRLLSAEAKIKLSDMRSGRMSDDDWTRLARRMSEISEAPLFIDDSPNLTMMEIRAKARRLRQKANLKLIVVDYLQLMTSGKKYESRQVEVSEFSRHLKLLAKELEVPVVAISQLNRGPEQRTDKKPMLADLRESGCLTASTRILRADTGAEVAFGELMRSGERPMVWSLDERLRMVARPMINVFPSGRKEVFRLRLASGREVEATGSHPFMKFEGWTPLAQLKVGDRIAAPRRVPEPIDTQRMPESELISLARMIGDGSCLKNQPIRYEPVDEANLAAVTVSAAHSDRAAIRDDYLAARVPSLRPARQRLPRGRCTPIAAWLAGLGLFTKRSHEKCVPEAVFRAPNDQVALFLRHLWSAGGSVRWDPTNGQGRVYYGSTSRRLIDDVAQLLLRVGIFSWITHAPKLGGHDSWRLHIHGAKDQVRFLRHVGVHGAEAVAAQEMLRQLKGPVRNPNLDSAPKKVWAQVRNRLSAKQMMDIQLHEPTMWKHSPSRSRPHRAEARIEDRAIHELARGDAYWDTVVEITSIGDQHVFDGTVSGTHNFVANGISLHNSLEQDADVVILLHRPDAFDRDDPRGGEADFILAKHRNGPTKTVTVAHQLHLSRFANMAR
The experiment in a line: DnaB intein splicing inhibitors, dose response, biochemical, cell-free fluorescence (AID 449749). The data set is classed as functional.

The next data set concerns Vero. The data set can be described thus: viability of Vero cells under compound – cytotoxicity control for flavivirus capping enzyme inhibitors (AID 588742). The format is functional. Particulars: Chlorocebus sabaeus.
The target in another data set is Genome polyprotein (dengue virus type 2, UniProt P29990). The data set can be described thus: flavivirus cap methylation enzyme inhibition – biochemical, confirmation dose response, primary screen (AID 588689). The data set is classed as functional.
Chain of Genome polyprotein (P29990 2492-3391 limits assumed): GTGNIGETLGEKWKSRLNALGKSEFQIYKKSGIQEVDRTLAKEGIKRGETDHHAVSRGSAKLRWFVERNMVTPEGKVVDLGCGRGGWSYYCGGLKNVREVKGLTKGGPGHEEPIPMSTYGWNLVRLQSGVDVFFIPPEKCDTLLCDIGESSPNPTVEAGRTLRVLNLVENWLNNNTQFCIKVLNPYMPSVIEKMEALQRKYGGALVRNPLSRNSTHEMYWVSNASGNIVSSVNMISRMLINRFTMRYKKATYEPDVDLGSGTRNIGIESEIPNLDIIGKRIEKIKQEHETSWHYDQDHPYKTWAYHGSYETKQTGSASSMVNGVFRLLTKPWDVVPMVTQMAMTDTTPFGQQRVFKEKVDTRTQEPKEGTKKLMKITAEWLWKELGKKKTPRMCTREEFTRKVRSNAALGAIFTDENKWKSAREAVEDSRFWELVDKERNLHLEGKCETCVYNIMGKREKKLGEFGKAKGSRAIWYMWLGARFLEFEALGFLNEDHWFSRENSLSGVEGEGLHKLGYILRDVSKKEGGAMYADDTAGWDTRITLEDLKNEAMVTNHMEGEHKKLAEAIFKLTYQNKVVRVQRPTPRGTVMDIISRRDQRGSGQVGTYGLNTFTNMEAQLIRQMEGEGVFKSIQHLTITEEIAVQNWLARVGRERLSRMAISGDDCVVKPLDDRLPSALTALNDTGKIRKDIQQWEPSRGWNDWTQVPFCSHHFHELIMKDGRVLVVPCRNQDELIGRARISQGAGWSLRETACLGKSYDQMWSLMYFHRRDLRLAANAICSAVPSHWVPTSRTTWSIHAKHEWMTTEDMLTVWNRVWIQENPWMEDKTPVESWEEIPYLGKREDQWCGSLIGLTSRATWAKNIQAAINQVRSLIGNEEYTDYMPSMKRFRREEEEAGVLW
For a further data set, the target named is T3, Cytochrome P450 1A2 (Homo sapiens, UniProt P05177).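 Note: PubChem cytochrome P450 panel assay, CYP1A2 panel member.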
T3 sequence (P05177 whole entry): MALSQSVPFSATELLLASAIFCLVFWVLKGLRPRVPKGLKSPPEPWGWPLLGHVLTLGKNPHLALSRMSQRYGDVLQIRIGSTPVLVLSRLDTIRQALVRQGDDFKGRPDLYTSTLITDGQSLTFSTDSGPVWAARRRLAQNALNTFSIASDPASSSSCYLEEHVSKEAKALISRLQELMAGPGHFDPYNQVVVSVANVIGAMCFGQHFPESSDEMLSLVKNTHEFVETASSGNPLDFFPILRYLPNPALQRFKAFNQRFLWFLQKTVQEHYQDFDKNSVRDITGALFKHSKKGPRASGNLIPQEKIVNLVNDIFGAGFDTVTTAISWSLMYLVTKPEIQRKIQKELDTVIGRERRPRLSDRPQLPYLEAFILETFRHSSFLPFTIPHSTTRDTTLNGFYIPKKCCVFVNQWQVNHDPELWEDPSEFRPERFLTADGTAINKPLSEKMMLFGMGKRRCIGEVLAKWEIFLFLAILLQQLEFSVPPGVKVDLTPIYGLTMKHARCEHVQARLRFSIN

Data set [7] in a line: Luminescence Cell-Based Dose Retest to Confirm Inhibitors of Cancer Stem Cells. [Related pubchem assays (depositor defined):AID2717, AID2721]. The format is functional. Particulars: Homo sapiens.
A short description of data set [8]: viability of uninfected HEp-2 cells – cell-based, HTS, cytotoxicity control for RSV inhibitor project, dose response (AID 2410). The format is functional. Particulars: human respiratory syncytial virus.
The target of the next data set is Cytochrome P450 2C19 (Homo sapiens, UniProt P33261). The data set can be described thus: Cytochrome panel assay with activity outcomes. Panel member name: p450-cyp2c19 Compounds with AC50 equal or less than 10 uM are considered active. The format is functional. As to conditions: read-out: AC50.
Chain of Cytochrome P450 2C19 (P33261 whole entry): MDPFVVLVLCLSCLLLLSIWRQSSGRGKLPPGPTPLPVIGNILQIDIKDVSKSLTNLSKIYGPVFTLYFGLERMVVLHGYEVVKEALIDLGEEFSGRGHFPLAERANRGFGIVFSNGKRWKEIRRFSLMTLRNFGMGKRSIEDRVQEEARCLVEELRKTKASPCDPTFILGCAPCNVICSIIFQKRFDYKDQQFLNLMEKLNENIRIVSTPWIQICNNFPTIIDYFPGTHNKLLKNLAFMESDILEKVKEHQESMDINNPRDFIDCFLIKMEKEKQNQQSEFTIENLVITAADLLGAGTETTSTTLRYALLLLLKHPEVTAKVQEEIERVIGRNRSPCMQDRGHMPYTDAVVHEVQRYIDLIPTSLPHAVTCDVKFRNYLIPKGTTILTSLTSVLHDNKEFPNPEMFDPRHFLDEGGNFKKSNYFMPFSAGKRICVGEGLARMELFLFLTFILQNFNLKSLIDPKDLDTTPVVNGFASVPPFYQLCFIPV

Chain of Cytochrome P450 3A4 (P08684 whole entry): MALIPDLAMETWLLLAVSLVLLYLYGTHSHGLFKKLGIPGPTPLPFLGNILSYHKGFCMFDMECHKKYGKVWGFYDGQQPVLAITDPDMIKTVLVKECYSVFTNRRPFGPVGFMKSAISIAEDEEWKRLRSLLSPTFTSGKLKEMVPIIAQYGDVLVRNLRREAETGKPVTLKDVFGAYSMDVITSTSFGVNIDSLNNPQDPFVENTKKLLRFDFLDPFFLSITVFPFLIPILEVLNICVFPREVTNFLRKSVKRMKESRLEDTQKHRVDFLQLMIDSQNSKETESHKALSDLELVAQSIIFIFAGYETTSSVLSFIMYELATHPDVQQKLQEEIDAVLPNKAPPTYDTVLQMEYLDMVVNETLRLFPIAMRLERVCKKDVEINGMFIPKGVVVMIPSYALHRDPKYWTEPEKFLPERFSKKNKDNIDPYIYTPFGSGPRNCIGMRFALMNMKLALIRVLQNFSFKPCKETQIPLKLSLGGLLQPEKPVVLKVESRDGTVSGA
Chain of Cytochrome P450 2D6 (P10635 whole entry): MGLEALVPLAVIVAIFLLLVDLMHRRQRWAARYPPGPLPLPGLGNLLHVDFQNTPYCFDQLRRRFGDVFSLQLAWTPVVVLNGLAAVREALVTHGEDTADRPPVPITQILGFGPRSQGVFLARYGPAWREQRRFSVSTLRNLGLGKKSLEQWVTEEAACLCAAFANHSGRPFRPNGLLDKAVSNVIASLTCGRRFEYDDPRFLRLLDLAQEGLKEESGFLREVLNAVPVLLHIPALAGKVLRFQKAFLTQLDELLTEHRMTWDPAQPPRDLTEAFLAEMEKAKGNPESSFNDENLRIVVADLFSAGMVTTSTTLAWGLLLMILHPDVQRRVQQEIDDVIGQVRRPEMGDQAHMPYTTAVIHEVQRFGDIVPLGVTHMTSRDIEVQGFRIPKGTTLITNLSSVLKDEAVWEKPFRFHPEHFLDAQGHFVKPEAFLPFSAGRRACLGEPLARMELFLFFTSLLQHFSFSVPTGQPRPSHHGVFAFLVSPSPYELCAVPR
Chain of Cytochrome P450 2C9 (P11712 whole entry): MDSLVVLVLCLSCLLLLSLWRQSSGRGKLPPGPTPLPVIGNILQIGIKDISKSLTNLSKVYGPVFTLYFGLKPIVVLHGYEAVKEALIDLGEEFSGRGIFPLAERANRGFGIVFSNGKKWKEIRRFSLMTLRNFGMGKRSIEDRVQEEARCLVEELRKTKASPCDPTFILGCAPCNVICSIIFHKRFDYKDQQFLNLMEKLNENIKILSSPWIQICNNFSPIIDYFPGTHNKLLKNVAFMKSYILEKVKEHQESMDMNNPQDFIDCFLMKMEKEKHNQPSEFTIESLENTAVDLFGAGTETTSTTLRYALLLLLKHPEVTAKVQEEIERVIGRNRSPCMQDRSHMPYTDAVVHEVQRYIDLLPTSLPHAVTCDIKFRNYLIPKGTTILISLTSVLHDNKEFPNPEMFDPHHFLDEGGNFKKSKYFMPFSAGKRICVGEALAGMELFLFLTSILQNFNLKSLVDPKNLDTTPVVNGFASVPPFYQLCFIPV

One may read the AC50 as the concentration giving half of the maximal activity seen. Consider `O=[N+]([O-])c1ccc(CSc2ncnc3c2ncn3[C@@H]2O[C@H](CO)[C@H](O)[C@H]2O)cc1`, for which the AC50 in data set [1] is 35.5 µM (inconclusive).
The same measure, in the same setting: for `Cc1c(C(=O)O)c(O)cc2c1C(=O)c1c(O)c([C@H]3O[C@H](CO)[C@@H](O)[C@H](O)[C@H]3O)c(O)c(O)c1C2=O` [CARMINE] the value was 79.4 µM (inconclusive).
For orientation: GI50 means the concentration giving 50% growth inhibition. With `CS(=O)(=O)CS(=O)(=O)OCCCl`, the GI50 in the data set on P388/ADR was 27.7 µM (inactive); in the data set with P388, 17.9 µM (inactive); in the data set on SN12K1, 152 µM (inactive).
Take `CCCCOC1(c2ccccc2)OC(=O)c2ccccc21` (centres undefined): the half-maximal activity concentration (AC50) at Cytochrome P450 2C9 is 17.8 µM (inconclusive); at Cytochrome P450 3A4, “inconclusive”.
As to `C=C1C(=O)O[C@@H]2[C@H](O)[C@@H](C)[C@@H]3C=CC(=O)[C@@]3(C)[C@@H](OC(=O)/C(C)=C/C)[C@H]12`, the results for the 50% growth inhibitory concentration (GI50) in the data set with P388/ADR, in the data set with P388 and with SN12K1 were 0.104 µM (active), 0.0933 µM (active) and 0.34 µM (active), respectively.
Turning to `COc1ccc(NC(=O)c2sc3ncnc(N4CCN(c5ccccn5)CC4)c3c2C)cc1Cl`, the AC50 was 4.08 µM (active) in data set [2]; 11.6 µM (active) with HEK293; 6.41 µM (active) in data set [3]; > 70 µM (inactive) in data set [4]; 3.19 µM (active) in data set [5].
In general, EC50 refers to the midpoint of the concentration-response curve. For orientation: CC50 means the concentration at which the toxic effect on the cells reaches its halfway point. As usually defined, the IC50 is the concentration at which inhibition is half-maximal. Take `COC(=O)c1c(NC(=O)/C=C/C(=O)O)sc(C)c1-c1ccc(C(C)C)cc1`: the concentration for a half-maximal effect (EC50) at Protein RecA is 2.4 µM (active). In addition, the concentration at half-maximal activity (AC50) in [6] is 6.48 µM (active). Further, the CC50 in the data set on Vero is > 40 µM (active). Further, the IC50 on Genome polyprotein was 65 µM (active).
Regarding `CC[C@H](NC(=O)c1c(C)c(-c2ccccc2)nc2ccccc12)c1ccccc1` [SB-222200], the concentration at half-maximal activity (AC50) in data set [1] was 35.5 µM (inconclusive).
With `CCCn1nnc(NC(=O)Cc2ccccc2)n1`, the AC50 at Cytochrome P450 1A2 is 28.2 µM (inconclusive); on Cytochrome P450 2C9, 0.00562 µM (inconclusive); on Cytochrome P450 3A4, “inconclusive”.
In the case of `CCCCOC(=O)COc1ccc(Cl)cc1Cl`, the AC50 in [1] is 50.1 µM (inconclusive).
In the case of `ClC1=C(Cl)C2(Cl)C3C(Cl)C=CC3C1(Cl)C2(Cl)Cl` (centres undefined) [HEPTACHLOR], the AC50 in data set [7] is 6.1 µM (active); in data set [1], 31.6 µM (inconclusive).
As to `N#Cc1cccc(NC(=O)N2CC3(CCN(C(=O)c4cnccn4)CC3)C2)c1`, the values for the AC50 on Cytochrome P450 1A2 and at Cytochrome P450 3A4 were 39.8 µM (inconclusive) and “inconclusive”, respectively.
`Sc1nnc(-c2ccco2)n1/N=C/C=C/c1ccco1`: the CC50 in the data set with Vero was > 40 µM (active).
For `COCCN1CSC(=S)N(Cc2ccco2)C1`, in the data set on HEK293, the AC50 was 0.688 µM (active).
Turning to `C[n+]1ccc(Nc2ccc(NC(=O)c3ccc(Nc4cc[n+](C)c5ccc([N+](=O)[O-])cc45)cc3[N+](=O)[O-])cc2)cc1`, the values for the GI50 with P388 and in the data set with SN12K1 were 0.771 µM (active) and 23.9 µM (inactive), respectively.
Take `CC(C)(C)c1ccc2c(c1)OP1(Oc3c(Cl)cc(Cl)c4cccnc34)(O2)Oc2ccc(C(C)(C)C)cc2O1`: the GI50 in the data set with P388/ADR is 2.84 µM (inactive); in the data set on P388, 0.889 µM (active); in the data set with SN12K1, 6.21 µM (inactive).
As for `COc1cc2c(cc1O)N=C[C@@H]1CC[C@@H](O)N1C2=O.COc1cc2c(cc1O)N=C[C@@H]1CC[C@H](O)N1C2=O`, the values for the 50% growth inhibitory concentration (GI50) in the data set on P388/ADR, in the data set with P388 and in the data set on SN12K1 were 0.173 µM (active), 0.582 µM (active) and 0.53 µM (active), respectively.
Take `Cc1noc(C)c1C(=O)N1CCC2(CCN(C(=O)Nc3ccccc3)CC2)CC1`: the AC50 result on Cytochrome P450 3A4 is “inconclusive”; at Cytochrome P450 2D6, 12.6 µM (inconclusive).
For `Cc1cccc(Nc2nc(-c3ccc(O)cc3O)cs2)n1`, the cytotoxic concentration (CC50) in the data set on Vero was > 40 µM (active); in [8] it was 43.6 µM (active). The AC50 in [7] was 6.88 µM (active).
Consider `CCC/N=C/c1c(CCC)nn(-c2nc3ccccc3s2)c1O`, for which the values for the AC50 result on Cytochrome P450 3A4, at Cytochrome P450 2C19 and at Cytochrome P450 2D6 were “inconclusive”, 20 µM (inconclusive) and 25.1 µM (inconclusive), respectively.
For `O=C1CCCN1CCC/N=c1/cc2n(-c3ccc(Cl)cc3)c3ccccc3nc-2cc1Nc1ccc(Cl)cc1`, the figures for the GI50 with P388/ADR, with P388 and in the data set with SN12K1 were 3.53 µM (inactive), 3.45 µM (inactive) and 9.66 µM (inactive), respectively.
